MIC data for 10 compounds are collected here from US4311699A, “Aminoacid derivatives of cephalosporin compounds” (priority 1980, dated 1982).

What all share (experiment): in vitro antibacterial activity, minimal inhibitory concentration
What all share (type): cell-based

One experiment concerns Staph. aureus S18733. Particulars: Staphylococcus aureus. The source says: (§1) The compounds of the invention are new chemical compounds that are used as pharmacological agents and especially as broad spectrum antibacterial agents. They are active in vitro against strains of both gram-positive and gram-negative bacteria.
(§2) Minimal Inhibitory Concentration (μg/ml)

Another experiment relates to E. coli Brig. Particulars: Escherichia coli.
Excerpt: as §1, §2

The test system of another experiment is Prot. vulg.
Excerpt: as §1, §2

Another experiment deals with Entero. cloacae. Particulars: Enterobacter cloacae.
Excerpt: as §1, §2

In another experiment the test system is Klebs. pneu.
Excerpt: as §1, §2

For the next experiment, the system named is Pseudomonas BRK 12-4-4. Particulars: BRK1244; Pseudomonas BRK 12-4-4, in vitro.
Excerpt: as §1, §2

The test system of the next experiment is Serr. marces.
Excerpt: as §1, §2

The subject of a further experiment is Pseudomonas UI 18. The note with it: UI18; Pseudomonas UI 18, in vitro.
Excerpt: as §1, §2

The subject of a further experiment is Strep. fec.
Excerpt: as §1, §2

A further experiment concerns Staph. aureus UC-76. The note with it: Staphylococcus aureus, UC76; Staph. aureus UC-76, in vitro.
Excerpt: as §1, §2

The next experiment has as its system Pseudomonas #28. The note with it: Pseudomonas #28, in vitro; read-out: Minimal Inhibitory Concentration.
Excerpt: as §1, §2

For another experiment, the system named is E. coli Vogel. Particulars: Escherichia coli.
Excerpt: as §1, §2

The structures appear in SMILES notation. ≈ marks a conversion by molar mass, not a printed value.

As to `NC(=O)CC[C@H](N)C(=O)Nc1ccc(-c2ncc(C(=O)N[C@@H](C(=O)NC3C(=O)N4C(C(=O)O)=C(CSc5nnnn5CC(=O)O)CSC34)c3ccccc3)c(O)n2)cc1` (stereo partly drawn) [Example 41, N-[2-[4-(L-Glutaminylamino)phenyl]-4-hydroxy-5-pyrimidinylcarbonyl]-7-[D-2-amino-2-phenylacetamido]-3-[[(1-carboxymethyl-1H-tetrazol-5-yl)thio]methyl]-3-cephem-4-carboxylic acid], the MIC amounted to 25 µg/mL (≈ 29.5 µM) with Staph. aureus S18733; 12.5 µg/mL (≈ 14.8 µM) in the experiment with E. coli Brig; 1.6 µg/mL (≈ 1.89 µM) in the experiment with Prot. vulg.; 12.5 µg/mL (≈ 14.8 µM) with Entero. cloacae; 3.1 µg/mL (≈ 3.66 µM) in the experiment with Klebs. pneu.; 12.5 µg/mL (≈ 14.8 µM) in the experiment with Pseudomonas BRK 12-4-4. Besides, the MIC in the experiment with Serr. marces. is 50 µg/mL (≈ 59 µM); against Pseudomonas UI 18, 12.5 µg/mL (≈ 14.8 µM); with Strep. fec., over 50 µg/mL; in the experiment with Staph. aureus UC-76, 12.5 µg/mL (≈ 14.8 µM); in the experiment with Pseudomonas #28 it was 12.5 µg/mL (≈ 14.8 µM); against E. coli Vogel, 3.1 µg/mL (≈ 3.66 µM).
Consider `CC(=O)NC(CCC(N)=O)C(=O)Nc1ccc(-c2ncc(C(=O)N[C@@H](C(=O)NC3C(=O)N4C(C(=O)O)=C(CSc5nnnn5C)CSC34)c3ccccc3)c(O)n2)cc1` (mixture of isomers) [Example 23, N-[2-[4-(N-Acetyl-DL-glutaminylamino)phenyl]-4-hydroxy-5-pyrimidinylcarbonyl]-7-[D-2-amino-2-phenylacetamido]-3-[[1-methyl-1H-tetrazol-5-yl)thio]methyl]-3-cephem-4-carboxylic acid], for which the MIC was found to be 12.5 µg/mL against Staph. aureus S18733; 3.1 µg/mL against E. coli Brig; 12.5 µg/mL against Prot. vulg.; 6.3 µg/mL in the experiment with Entero. cloacae; 3.1 µg/mL in the experiment on Klebs. pneu.; 12.5 µg/mL in the experiment on Pseudomonas BRK 12-4-4. The MIC against Serr. marces. stood at 50 µg/mL; against Pseudomonas UI 18 it was 6.3 µg/mL; with Strep. fec., 50 µg/mL; in the experiment on Staph. aureus UC-76 it was 3.1 µg/mL; in the experiment on Pseudomonas #28, 6.3 µg/mL; in the experiment on E. coli Vogel, 0.8 µg/mL.
Consider `CC(=O)NC(C)C(=O)Nc1ccc(-c2ncc(C(=O)N[C@@H](C(=O)N[C@@H]3C(=O)N4C(C(=O)O)=C(COC(C)=O)CS[C@H]34)c3ccc(O)cc3)c(O)n2)cc1` (mixture of isomers) [Example 9, N-[2-[4-(N-Acetyl-DL-alanylamino)phenyl]-4-hydroxy-5-pyrimidinylcarbonyl]-7-[D-2-amino-2-(4-hydroxyphenyl)acetamido]-3-acetoxymethyl-3-cephem-4-carboxylic acid], for which the MIC turned out to be 6.3 µg/mL in the experiment with Staph. aureus S18733; 50 µg/mL against E. coli Brig; 12.5 µg/mL against Prot. vulg.; 50 µg/mL in the experiment on Entero. cloacae; 12.5 µg/mL against Klebs. pneu.; 3.1 µg/mL against Pseudomonas BRK 12-4-4. Moreover, the MIC is over 50 µg/mL against Serr. marces.; 3.1 µg/mL with Pseudomonas UI 18; 50 µg/mL in the experiment with Strep. fec.; 3.1 µg/mL against Staph. aureus UC-76; 1.6 µg/mL with Pseudomonas #28; 12.5 µg/mL in the experiment on E. coli Vogel.
Consider `CC(=O)N[C@H](C)C(=O)Nc1ccc(-c2ncc(C(=O)N[C@@H](C(=O)NC3C(=O)N4C(C(=O)O)=C(CSc5nnnn5CC(=O)O)CSC34)c3ccccc3)c(O)n2)cc1` (stereo partly drawn) [Example 34, N-[2-[4-(N-Acetyl-D-alanylamino)phenyl]-4-hydroxy-5-pyrimidinylcarbonyl]-7-[D-2-amino-2-phenylacetamido]-3-[[(1-carboxymethyl-1H-tetrazol-5-yl)thio]methyl]-3-cephem-4-carboxylic acid], for which the MIC against Staph. aureus S18733 stood at 25 µg/mL (≈ 30.1 µM); with E. coli Brig, 12.5 µg/mL (≈ 15 µM); with Prot. vulg., 1.6 µg/mL (≈ 1.92 µM); in the experiment with Entero. cloacae it was 12.5 µg/mL (≈ 15 µM); against Klebs. pneu., 6.3 µg/mL (≈ 7.57 µM); with Pseudomonas BRK 12-4-4, 12.5 µg/mL (≈ 15 µM). Moreover, the MIC in the experiment with Serr. marces. was over 50 µg/mL; against Pseudomonas UI 18, 12.5 µg/mL (≈ 15 µM); against Strep. fec., over 50 µg/mL; in the experiment with Staph. aureus UC-76 it was 12.5 µg/mL (≈ 15 µM); with Pseudomonas #28 it was 12.5 µg/mL (≈ 15 µM); against E. coli Vogel it was 3.1 µg/mL (≈ 3.73 µM).
`CC(=O)NC(C)(C)C(=O)Nc1ccc(-c2ncc(C(=O)N[C@@H](C(=O)N[C@@H]3C(=O)N4C(C(=O)O)=C(COC(C)=O)CS[C@H]34)c3ccccc3)c(O)n2)cc1` [Example 2, N-[2-[4-(N-Acetyl-alpha-aminoisobutyrylamino)phenyl)-4-hydroxy-5-pyrimidinylcarbonyl]-7-[D-2-amino-2-phenylacetamido]-3-acetoxymethyl-3-cephem-4-carboxylic acid]: the MIC came out at 12.5 µg/mL (≈ 16.8 µM) in the experiment with Staph. aureus S18733; 50 µg/mL (≈ 67 µM) against E. coli Brig; 25 µg/mL (≈ 33.5 µM) in the experiment with Prot. vulg.; 50 µg/mL (≈ 67 µM) in the experiment with Entero. cloacae; 25 µg/mL (≈ 33.5 µM) in the experiment on Klebs. pneu.; 6.3 µg/mL (≈ 8.45 µM) in the experiment on Pseudomonas BRK 12-4-4. Besides, the MIC with Serr. marces. was over 50 µg/mL; in the experiment with Pseudomonas UI 18, 3.1 µg/mL (≈ 4.16 µM); in the experiment with Strep. fec. it was over 50 µg/mL; in the experiment on Staph. aureus UC-76, 3.1 µg/mL (≈ 4.16 µM); in the experiment on Pseudomonas #28, 1.6 µg/mL (≈ 2.15 µM); against E. coli Vogel, 25 µg/mL (≈ 33.5 µM).
For `CC(=O)NC(C)C(=O)Nc1ccc(-c2ncc(C(=O)N[C@@H](C(=O)N[C@@H]3C(=O)N4C(C(=O)O)=C(COC(N)=O)CS[C@H]34)c3ccccc3)c(O)n2)cc1` (mixture of isomers) [Example 20, N-[2-[4-(N-Acetyl-DL-alanylamino)phenyl]-4-hydroxy-5-pyrimidinylcarbonyl]-7-[D-2-amino-2-phenylacetamido]-3-carbamoyloxymethyl-3-cephem-4-carboxylic acid], the MIC was 3.1 µg/mL against Staph. aureus S18733; 50 µg/mL in the experiment on E. coli Brig; 25 µg/mL in the experiment with Prot. vulg.; over 50 µg/mL against Entero. cloacae; 25 µg/mL against Klebs. pneu.; 12.5 µg/mL in the experiment on Pseudomonas BRK 12-4-4. In addition, the MIC in the experiment with Serr. marces. is over 50 µg/mL; in the experiment on Pseudomonas UI 18, 6.3 µg/mL; against Strep. fec., over 50 µg/mL; in the experiment on Staph. aureus UC-76, 1.6 µg/mL; with Pseudomonas #28, 6.3 µg/mL; in the experiment on E. coli Vogel, 12.5 µg/mL.
Consider `CC(=O)NC(C)C(=O)Nc1ccc(-c2ncc(C(=O)N[C@@H](C(=O)NC3C(=O)N4C(C(=O)O)=C(CSc5nnnn5CC(=O)O)CSC34)c3ccccc3)c(O)n2)cc1` (mixture of isomers) [Example 35, N-[2-[4-(N-Acetyl-DL-alanylamino)phenyl]-4-hydroxy-5-pyrimidinylcarbonyl]-7-[D-2-phenylacetamido-3-[[(1-carboxymethyl-1H-tetrazol-5-yl)thio]methyl]-3-cephem-4-carboxylic acid], for which the MIC was determined as 25 µg/mL with Staph. aureus S18733; 6.3 µg/mL with E. coli Brig; 3.1 µg/mL against Prot. vulg.; 6.3 µg/mL in the experiment with Entero. cloacae; 6.3 µg/mL with Klebs. pneu.; 12.5 µg/mL with Pseudomonas BRK 12-4-4. Also, the MIC was 50 µg/mL against Serr. marces.; 12.5 µg/mL in the experiment with Pseudomonas UI 18; over 50 µg/mL against Strep. fec.; 12.5 µg/mL in the experiment with Staph. aureus UC-76; 6.3 µg/mL with Pseudomonas #28; 3.1 µg/mL with E. coli Vogel.
On to `CC(=O)NCCC(=O)Nc1ccc(-c2ncc(C(=O)N[C@@H](C(=O)N[C@@H]3C(=O)N4C(C(=O)O)=C(COC(C)=O)CS[C@H]34)c3ccccc3)c(O)n2)cc1` [Example 3], for which the MIC with Staph. aureus S18733 stood at 6.3 µg/mL (≈ 8.61 µM); with E. coli Brig, 25 µg/mL (≈ 34.2 µM); against Prot. vulg., 12.5 µg/mL (≈ 17.1 µM); in the experiment on Entero. cloacae, 50 µg/mL (≈ 68.3 µM); with Klebs. pneu., 12.5 µg/mL (≈ 17.1 µM); in the experiment on Pseudomonas BRK 12-4-4 it was 12.5 µg/mL (≈ 17.1 µM). Moreover, the MIC against Serr. marces. is under 50 µg/mL; in the experiment on Pseudomonas UI 18 it was 6.3 µg/mL (≈ 8.61 µM); in the experiment with Strep. fec., 50 µg/mL (≈ 68.3 µM); with Staph. aureus UC-76, 1.6 µg/mL (≈ 2.19 µM); with Pseudomonas #28, 6.3 µg/mL (≈ 8.61 µM); in the experiment on E. coli Vogel, 12.5 µg/mL (≈ 17.1 µM).
For `CC(=O)NC(C)C(=O)Nc1ccc(-c2ncc(C(=O)N[C@@H](C(=O)NC3C(=O)N4C(C(=O)O)=C(CSc5nnnn5C)CSC34)c3ccc(O)cc3)c(O)n2)cc1` (mixture of isomers) [Example 32, N-[2-[4-(N-Acetyl-DL-alanylamino)phenyl]-4-hydroxy-5-pyrimidinylcarbonyl]-7-[D-2-amino-2-(4-hydroxyphenyl)acetamido]-3-[[(1-methyl-1H-tetrazol-5-yl)thio]methyl]-3-cephem-4-carboxylic acid], the MIC came to 6.3 µg/mL with Staph. aureus S18733; 6.3 µg/mL against E. coli Brig; 12.5 µg/mL against Prot. vulg.; 6.3 µg/mL against Entero. cloacae; 1.6 µg/mL against Klebs. pneu.; 6.3 µg/mL in the experiment on Pseudomonas BRK 12-4-4. For the same compound, the MIC in the experiment on Serr. marces. is over 50 µg/mL; with Pseudomonas UI 18 it was 6.3 µg/mL; in the experiment with Strep. fec., 50 µg/mL; in the experiment with Staph. aureus UC-76 it was 3.1 µg/mL; in the experiment on Pseudomonas #28 it was 3.1 µg/mL; against E. coli Vogel it was 1.6 µg/mL.
On to `CC(=O)N[C@H](C)C(=O)Nc1ccc(-c2ncc(C(=O)N[C@@H](C(=O)NC3C(=O)N4C(C(=O)O)=C(CSc5nnnn5C)CSC34)c3ccc(O)cc3)c(O)n2)cc1` (stereo partly drawn) [Example 31, N-[2[4-(N-Acetyl-D-alanylamino)phenyl]-4-hydroxy-5-pyrimidinyl-carbonyl]-7-[D-2-amino-2-(4-hydroxyphenyl)acetamido]-3-[[(1-methyl-1H-tetrazol-5-yl)thiol]methyl]-3-cephem-4-carboxylic acid], for which the MIC against Staph. aureus S18733 was found to be 6.3 µg/mL (≈ 7.84 µM); against E. coli Brig, 6.3 µg/mL (≈ 7.84 µM); in the experiment on Prot. vulg., 6.3 µg/mL (≈ 7.84 µM); in the experiment with Entero. cloacae it was 6.3 µg/mL (≈ 7.84 µM); in the experiment on Klebs. pneu., 1.6 µg/mL (≈ 1.99 µM); against Pseudomonas BRK 12-4-4 it was 3.1 µg/mL (≈ 3.86 µM). The MIC was found to be 50 µg/mL (≈ 62.2 µM) with Serr. marces.; 3.1 µg/mL (≈ 3.86 µM) against Pseudomonas UI 18; 25 µg/mL (≈ 31.1 µM) in the experiment with Strep. fec.; 3.1 µg/mL (≈ 3.86 µM) in the experiment on Staph. aureus UC-76; 3.1 µg/mL (≈ 3.86 µM) in the experiment on Pseudomonas #28; 1.6 µg/mL (≈ 1.99 µM) against E. coli Vogel.
